“Also recorded” adds a separate entry of the source.
What was measured:
[1] = Compound A levels in plasma after dosing of mice; assay type: in vivo, C57BL/6 mice
Description: (§1) The pharmacokinetic/pharmacodynamic properties of Compound A were evaluated in C57BL/6 mice following dosing by subcutaneous, intramuscular, or intravenous routes of administration. Blood was collected post-dosing for the measurement of Compound A and cytokine levels in plasma.

IFNβ and other cytokines = assay: Cytokine production induced in mice; assay type: in vivo, C57BL/6 mice
Description: as §1

4T1 (breast cancer) = assay: 4T1 PD-L1 antibody-resistant tumor model; assay type: in vivo, BALB/c mice
Description: Compound A was evaluated alone and in combination with 200 µg of the PD-L1 antibody used in Example 6 in immune checkpoint blockade-resistant tumors. In these studies, mice were implanted with LL2 (lung cancer), 4T1 (breast cancer), AG104Ld (fibrosarcoma), and AG104A (fibrosarcoma) tumors. Following implantation, the animals were dosed intratumorally or subcutaneously with 0.5 mg/kg of Compound A alone or in combination with the PD-L1 antibody, as shown in the table below: […]

AG104 (fibrosarcoma) = assay: AG104 syngeneic tumor model, intratumoral; assay type: in vivo, mouse
Description: Note that several of these tumors such as B16F10, 4T1, LL2 and AG104 are known to be refractory to antibodies against PD-1, PD-L1, or CTLA-4. In the B16F10 tumor model, twice weekly injection of Compound A for two weeks was efficacious in a dose-dependent manner in the range from 0.1 µg to 10 µg (0.005-0.5 mg/kg).

B16 melanoma = assay: Abscopal effect, B16 melanoma bilateral tumor model; assay type: in vivo, mice; details: intratumoral into primary tumor, 0.15 and 0.5 mg/kg
Description: (§2) An abscopal effect is an immune-mediated phenomenon wherein direct treatment of a primary tumor can lead to a response in a distant tumor. The potential abscopal effect of Compound A was evaluated in B16 melanoma and AG104A fibrosarcoma tumor models evaluating mice bearing tumors on both right flank (primary tumor) and left flank (secondary tumor). In both models, Compound A was administered intratumorally into the primary tumor on days 5, 8, 11 and 15 after tumor inoculation. The secondary tumor was not treated.

AG104A fibrosarcoma = assay: Abscopal effect, AG104A fibrosarcoma bilateral tumor model; assay type: in vivo, C3B6F1 mice; details: intratumoral into primary tumor, PD-L1 antibody 200 µg
Description: C3B6F1 mice (N=8) bearing AG104A tumors on both left and right flanks were treated intratumorally on the right flank (primary) with Compound A on Days 5, 8, 11, and 15 after tumor inoculation. Tumors on the left flank (distant) were not treated.
as §2

[2] = system: IFNα, IL-6, TNFα and other cytokines; assay: Plasma cytokine levels in cynomolgus monkeys; assay type: in vivo; details: for plasma IFNα levels: male and female
[3] = 1 mg/kg/day, 1.5, 3 and 6 hours postdose

## Nc1nc2c(ncn2[C@@H]2O[C@@H]3COP(=O)(O)OC4C(O)[C@H](n5cnc6c(N)ncnc65)O[C@@H]4COP(=O)(O)OC2C3OCC(F)(F)F)c(=O)[nH]1 (stereo partly drawn) [Compound A]
[1]; C57BL/6, mouse, plasma, 15 minutes after injection, subcutaneous, intramuscular or intravenous, read-out: Compound A level in plasma
  concentration at 15 minutes: 5 to 15 µM
[1]; at 15 minutes, subcutaneous or intratumoral
  Compound A in circulation: detectable
[1]; by 1 hour, subcutaneous, intratumoral or intravenous
  Levels of Compound A: below the limit of quantitation (BLOQ)
[1]; one hour after administration
  Compound A level in plasma: below the limit of detection
[1]; subcutaneous, intramuscular, intravenous
  Cmax, comparison between administration routes: not significantly different between administration routes
IFNβ and other cytokines; 0.50 mg/kg
  cytokine induction: very low levels of cytokines
IFNβ and other cytokines; 3 hours post dosing
  IFNβ in blood: High levels of IFNβ
IFNβ and other cytokines; 12 hours post dosing
  IFNβ levels in blood: near the BLOQ
IFNβ and other cytokines; dose levels that showed significant antitumor efficacy
  cytokine induction: only induced low levels of cytokine
IFNβ and other cytokines; following administration
  time at which cytokine production was seen: 3 to 6 h
  time to decrease of cytokines to BLOQ: ≤ 12 h
IFNβ and other cytokines; subcutaneous 0, 0.15, 0.50, 1.50, 5, 15, 50 mg/kg, 3 and 6 hours post injection
  induction of IFNβ and other cytokines: dose-dependent induction of IFNβ
4T1 (breast cancer); Compound A 0.5 mg/kg IT, days 5, 8, 11, 15, PD-L1 antibody 200 µg
  efficacy (tumor growth and survival): suppressed tumor growth and prolonged mouth survival
4T1 (breast cancer); intratumoral
  tumor growth inhibition: highly effective in inhibiting tumor growth
AG104 (fibrosarcoma)
  tumor growth inhibition: highly effective in inhibiting tumor growth
B16 melanoma
  survival: survival was significantly prolonged
B16 melanoma; days 5, 8, 11, 15
  tumor growth/volume, primary and distant tumors: tumor growth was suppressed in both primary and distant tumors; also recorded: significantly decreased
AG104A fibrosarcoma; 0.15 and 0.5 mg/kg, days 5, 8, 11, 15
  tumor growth/volume, primary and distant tumors: tumor growth was suppressed in both primary and distant tumors; also recorded: significantly decreased
AG104A fibrosarcoma
  survival: survival was significantly prolonged; also recorded: increases the survival
[2]; 0.1 mg/kg/day, 3 and 6 hours postdose
  plasma IL-6 levels: Increased plasma levels of IL-6
[2]; 0.1 mg/kg/day, 3 hours post dosing
  IP-10: Slight elevation of IP-10
[2]; 0.1 mg/kg/day, 6 hours postdose in male, 3 and 6 hours in female
  TNFα levels: Elevated levels of TNFα
[2]; 0.1 mg/kg/day, 24 hours post dosing
  TNFα levels: returned to non-detectable level
[2]; 0.1 mg/kg/day, 24 hours postdose
  IL-6 levels: returned to a non-detectable level
[2]; 0.1 mg/kg/day
  plasma IFNα levels: did not cause significant increase
[2]; 0.6 mg/kg/day, 3 and 6 hours postdose
  plasma IL-6 levels: Increased plasma levels of IL-6
[2]; 0.6 mg/kg/day, 6 hours postdose in male, 1.5, 3, 6 hours in female
  TNFα levels: Elevated levels of TNFα
[2]; 0.6 mg/kg/day
  plasma IFNα levels: did not cause significant increase
[2]; 0.6 mg/kg/day, throughout the time course
  IP-10: No significant elevation of IP-10
[2]; [3]
  IP-10 level: no increased IP-10 level
  TNFα levels: Elevated TNFα levels
[2]; 1 mg/kg/day, 1.5 and 3 hours postdose
  IFNα levels: did not cause significant change
[2]; 1 mg/kg/day, 3 and 6 hours postdose
  IL-6 levels: Marked increase in IL-6 levels
[2]; 1 mg/kg/day, 6 hours postdose
  IFNα levels: elevated levels
[2]; 3 mg/kg and 10 mg/kg, 12 hours after dosing
  IFNα levels: decreased 12 hours after dosing, but did not return to pre-dose levels
[2]; 10 mg/kg group
  IFNα levels: Higher levels of IFNα
[2]; Phase II
  IL-12, G-CSF, and IFNγ levels: sporadic increases
  changes in MCP-1 and IP-10 levels: suggestive of an inflammatory response with resolution by 24 hours postdose
[2]; Phase II, 3 mg/kg, 3 and 6 hours
  plasma IL-1ra, IL-6, and IFNα cytokine levels: dose-dependent increases
